Measurements taken from the supplement of paper PMC13380429.

Experiments:
Conditions in all cases: 72 h
[1] = test system: U2OS; experiment: cell viability relative to DMSO; higher = less toxic
[2] = test system: HepG2; experiment: as above
[3] = test system: Calu-3; experiment: as above
[4] = test system: Vero E6; experiment: as above
[5] = test system: Caco-2; experiment: as above
[6] = test system: U2OS; experiment: relative viability EC50 (midpoint between 100% and the lowest measured viability); higher = less toxic
[7] = test system: HepG2; experiment: as above
[8] = test system: Calu-3; experiment: as above
[9] = test system: Vero E6; experiment: as above
[10] = test system: Caco-2; experiment: as above
[11] = test system: U2OS; experiment: drug sensitivity score (DSS) for viability; higher = more toxic; extreme values may be limits of the assay
[12] = test system: HepG2; experiment: as above
[13] = test system: Calu-3; experiment: as above
[14] = test system: Vero E6; experiment: as above
[15] = test system: Caco-2; experiment: as above

SMILES | cell viability ([1]; 1 nM) | cell viability ([1]; 10 nM) | cell viability ([1]; 100 nM) | cell viability ([1]; 1000 nM) | cell viability ([1]; 10000 nM) | cell viability ([2]; 1 nM) | cell viability ([2]; 10 nM) | cell viability ([2]; 100 nM) | cell viability ([2]; 1000 nM) | cell viability ([2]; 10000 nM) | cell viability ([3]; 1 nM) | cell viability ([3]; 10 nM) | cell viability ([3]; 100 nM) | cell viability ([3]; 1000 nM) | cell viability ([3]; 10000 nM) | cell viability ([4]; 1 nM) | cell viability ([4]; 10 nM) | cell viability ([4]; 100 nM) | cell viability ([4]; 1000 nM) | cell viability ([4]; 10000 nM) | cell viability ([5]; 1 nM) | cell viability ([5]; 10 nM) | cell viability ([5]; 100 nM) | cell viability ([5]; 1000 nM) | cell viability ([5]; 10000 nM) | relative viability EC50 [6] | relative viability EC50 [7] | relative viability EC50 [8] | relative viability EC50 [9] | relative viability EC50 [10] | drug sensitivity score [11] | drug sensitivity score [12] | drug sensitivity score [13] | drug sensitivity score [14] | drug sensitivity score [15]
CCOC(=O)[C@H](CCc1ccccc1)N[C@@H](C)C(=O)N1CCC[C@H]1C(=O)O [enalapril] | 97.9% | 101% | 99.5% | 98.6% | 102% | 103% | 95.4% | 98.4% | 109% | 109% | 90.5% | 98.3% | 92.2% | 101% | 91.9% | 97.2% | 99.3% | 98.2% | 100% | 107% | 92.4% | 97.1% | 84.1% | 102% | 100% | > 10 µM | > 10 µM | > 10 µM | > 10 µM | > 10 µM | 0 | 0 | 0 | 0 | 0
C[C@]12CC[C@@H]3c4ccc(OC(=O)N(CCCl)CCCl)cc4CC[C@H]3[C@@H]1CC[C@@H]2OP(=O)(O)O [estramustine-phosphate] | 102% | 100% | 98.7% | 97.3% | 99.1% | 98.3% | 90.8% | 101% | 95.4% | 104% | 99% | 105% | 90.2% | 99.9% | 116% | 95.1% | 103% | 94.9% | 107% | 92.8% | 115% | 89.9% | 92.2% | 94.3% | 94.9% | > 10 µM | > 10 µM | > 10 µM | > 10 µM | > 10 µM | 0 | 0 | 0 | 0 | 0
CCOc1ccccc1C(N)=O [ethenzamide] | 106% | 97.9% | 100% | 98.2% | 100% | 101% | 94.9% | 95.4% | 102% | 91.2% | 95.3% | 101% | 99.5% | 98.1% | 103% | 104% | 98.1% | 101% | 92.6% | 97.3% | 100% | 97% | 97.6% | 98.9% | 103% | > 10 µM | > 10 µM | > 10 µM | > 10 µM | > 10 µM | 0 | 0 | 0 | 0 | 0
CCNC1=Nc2ccc(Cl)cc2C(C)(c2ccccc2)O1 (stereo not given) [etifoxine] | 92.1% | 96.9% | 99.8% | 98.3% | 98% | 95.7% | 100% | 101% | 107% | 95.3% | 94.4% | 97.2% | 102% | 102% | 90.7% | 94.8% | 98.1% | 95.5% | 99.3% | 112% | 90.1% | 102% | 96.1% | 92.2% | 97.3% | > 10 µM | > 10 µM | > 10 µM | > 10 µM | > 10 µM | 0 | 0 | 0 | 0 | 0
OC[C@H]1NCC[C@@H](O)[C@@H]1O [fagomine] | 97.9% | 100% | 93.8% | 97.1% | 94.8% | 98.9% | 97.4% | 93.3% | 90.2% | 94.6% | 111% | 103% | 97% | 104% | 99.8% | 95.6% | 93.5% | 93.1% | 94.5% | 92.7% | 89% | 91.9% | 93.8% | 87.2% | 87.9% | > 10 µM | > 10 µM | > 10 µM | > 10 µM | > 10 µM | 0 | 0 | 0 | 0 | 0.3
